Experimental data reported in PubChem BioAssay AID977614 (Broad Institute, 2014).
Activity calls are given as the source filed them.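 The calls were made as follows: active = parasite count per well reduced by over 3 SD from the mean, with host cell number above 80% of untreated; inactive = the rest.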

These compounds were tested on L. donovani amastigotes in THP-1 macrophages, DAPI imaging, 72 h (assay: L. donovani intracellular amastigote growth inhibitors, imaging, THP-1 host macrophages, single concentration (AID 977614);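 also: signal is the parasite per host cell ratio from DAPI stained kinetoplasts and nuclei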).

SMILES | AC50
COCC(=O)N(C[C@H]1N[C@H](CO)[C@@H]1c1ccc(C2=CCCC2)cc1)C1CCCC1 | > 10 µM (inactive)
CC(C)NC(=O)N1[C@H](CO)[C@H]2c3ccccc3NC[C@H]21 | > 10 µM (inactive)
C[C@H]1CN([C@@H](C)CO)C(=O)CCCn2cc(nn2)CO[C@H]1CN(C)C(=O)NC1CCCCC1 | > 10 µM (inactive)
C[C@@H]1CN([C@H](C)CO)C(=O)CCCn2cc(nn2)CO[C@@H]1CN(C)Cc1ccccc1 | > 10 µM (inactive)
C[C@H](CO)N1C[C@H](C)[C@H](CN(C)S(=O)(=O)c2ccc(-n3cccn3)cc2)OCc2cn(nn2)CCCC1=O | > 10 µM (inactive)
CC(=O)N1[C@@H]2CN(S(=O)(=O)c3ccccc3C)c3ccccc3[C@@H]2[C@@H]1CO | > 10 µM (inactive)
CNC[C@@H]1OCc2cnnn2CCCC(=O)N([C@H](C)CO)C[C@H]1C | > 10 µM (inactive)
CN1C[C@@H]2[C@H](c3ccccc31)[C@@H](CO)N2Cc1ccccc1Cl | > 10 µM (inactive)
COCCN(C[C@H]1[C@H](c2ccccc2)[C@@H](CO)N1C(C)=O)C(=O)c1cccnc1 | > 10 µM (inactive)
C[C@@H]1CN([C@@H](C)CO)C(=O)CCCn2cc(nn2)CO[C@H]1CN(C)C(=O)Nc1cccc2ccccc12 | > 10 µM (inactive)
COCC(=O)N(C)C[C@H]1[C@H](c2ccccc2)[C@@H](CO)N1C(=O)Cc1ccncc1 | > 10 µM (inactive)
C[C@@H]1CN([C@@H](C)CO)C(=O)CCCn2nncc2CO[C@@H]1CN(C)CC1CCCCC1 | > 10 µM (inactive)
C[C@@H]1CN([C@@H](C)CO)C(=O)CCCn2nncc2CO[C@H]1CN(C)Cc1cccc(C(F)(F)F)c1 | > 10 µM (inactive)
C[C@@H]1CN([C@H](C)CO)C(=O)CCCn2cc(nn2)CO[C@@H]1CN(C)S(=O)(=O)c1cccc(C#N)c1 | > 10 µM (inactive)
O=S(=O)(c1ccccc1)N1[C@@H]2CNc3ccccc3[C@@H]2[C@@H]1CO | > 10 µM (inactive)
CC(=O)N1[C@H](CO)[C@H](c2ccccc2)[C@@H]1CN(C(=O)c1ccccc1F)C(C)C | > 10 µM (inactive)
C/C=C/c1ccc([C@@H]2[C@H](CO)N(C(C)=O)[C@H]2CNC(=O)c2ccccc2)cc1 | > 10 µM (inactive)
C[C@H](CO)N1C[C@H](C)[C@@H](CN(C)Cc2ccccc2)OCc2cn(nn2)CCCC1=O | > 10 µM (inactive)
O=C(C1CCOCC1)N1C[C@H]2[C@@H](c3ccccc31)[C@H](CO)N2C(=O)Cc1ccccn1 | > 10 µM (inactive)
CC(=O)N1[C@@H](CO)[C@@H]2c3ccccc3N(C(=O)c3ccc(F)cc3)C[C@@H]21 | > 10 µM (inactive)
Cc1cccc(S(=O)(=O)N2C[C@@H]3[C@H](c4ccccc42)[C@@H](CO)N3C(=O)c2ccccc2)c1 | > 10 µM (inactive)
C[C@H](CO)N1C[C@H](C)[C@@H](CN(C)Cc2cccc(C(F)(F)F)c2)OCc2cnnn2CCCC1=O | > 10 µM (inactive)
C[C@H](CO)N1C[C@H](C)[C@@H](CN(C)S(=O)(=O)c2ccc(-n3cccn3)cc2)OCc2cn(nn2)CCCC1=O | > 10 µM (inactive)
C[C@H]1CN([C@@H](C)CO)C(=O)CCCn2cc(nn2)CO[C@@H]1CN(C)C(=O)Nc1cccc(C(F)(F)F)c1 | > 10 µM (inactive)
COCC(=O)N(C)C[C@H]1[C@H](c2ccccc2)[C@H](CO)N1C(=O)Cc1ccncc1 | > 10 µM (inactive)
COc1ccccc1C(=O)N1C[C@H]2[C@@H](c3ccccc31)[C@H](CO)N2C(=O)Cc1ccccc1 | > 10 µM (inactive)

SMILES | AC50
O=C(c1ccccn1)N1C[C@@H]2[C@H](c3ccccc31)[C@@H](CO)N2C(=O)Nc1ccccc1Cl | > 10 µM (inactive)
CC(=O)N(Cc1cccc(F)c1)C[C@H]1[C@@H](c2ccccc2)[C@@H](CO)N1C(C)=O | > 10 µM (inactive)
CCC(=O)N1[C@H](CO)[C@H](c2ccccc2)[C@@H]1CN(CC)C(=O)c1cccc(F)c1 | > 10 µM (inactive)
O=C(NC[C@@H]1N[C@@H](CO)[C@@H]1c1ccc(-c2ccccc2F)cc1)c1ccccn1 | > 10 µM (inactive)
C[C@H](CO)N1C[C@H](C)[C@H](CN(C)Cc2ccccc2C(=O)O)OCc2cnnn2CCCC1=O | > 10 µM (inactive)
CN(C[C@H]1N[C@@H](CO)[C@@H]1c1ccc(C2=CCCC2)cc1)C(=O)c1cccc(F)c1 | > 10 µM (inactive)
CCC(=O)NC[C@@H]1[C@@H](c2ccc(-c3cccc(F)c3)cc2)[C@@H](CO)N1CC1CC1 | > 10 µM (inactive)
O=C(C1CCCCC1)N1[C@@H](CO)[C@@H]2c3ccccc3NC[C@@H]21 | > 10 µM (inactive)
CC(=O)N1[C@H](CO)[C@@H](c2ccccc2)[C@H]1CNC(=O)CN1CCOCC1 | > 10 µM (inactive)
Cc1noc(C)c1S(=O)(=O)N(C)C[C@@H]1OCc2cn(nn2)CCCC(=O)N([C@@H](C)CO)C[C@@H]1C | > 10 µM (inactive)
C[C@@H]1CN([C@H](C)CO)C(=O)CCCn2cc(nn2)CO[C@H]1CN(C)Cc1ccccc1 | > 10 µM (inactive)
C[C@H]1CN([C@@H](C)CO)C(=O)CCCn2cc(nn2)CO[C@@H]1CN(C)C(=O)Nc1ccc2c(c1)OCO2 | > 10 µM (inactive)
CC(=O)N1[C@@H](CO)[C@@H]2c3ccccc3N(S(=O)(=O)c3ccccc3C)C[C@@H]21 | > 10 µM (inactive)
O=C(CC(F)(F)F)N1C[C@@H]2[C@H](c3ccccc31)[C@@H](CO)N2Cc1cccnc1 | > 10 µM (inactive)
C[C@@H]1CN([C@H](C)CO)C(=O)CCCn2nncc2CO[C@H]1CN(C)C(=O)Nc1ccccc1C(F)(F)F | > 10 µM (inactive)
CCCNC(=O)N1C[C@H]2[C@@H](c3ccccc31)[C@H](CO)N2C(=O)CN1CCOCC1 | > 10 µM (inactive)
C[C@@H]1CN([C@@H](C)CO)C(=O)CCCn2cc(nn2)CO[C@H]1CN(C)Cc1ccccc1 | > 10 µM (inactive)
O=C(Nc1cccc(Cl)c1)N1C[C@@H]2[C@H](c3ccccc31)[C@H](CO)N2Cc1cccnc1 | > 10 µM (inactive)
C[C@@H]1CN([C@H](C)CO)C(=O)CCCn2cc(nn2)CO[C@H]1CN(C)C(=O)NC1CCCCC1 | > 10 µM (inactive)
CC(C)NC(=O)N1[C@@H]2CN(C)c3ccccc3[C@@H]2[C@@H]1CO | > 10 µM (inactive)
Cc1noc(C)c1NC(=O)N(C)C[C@@H]1OCc2cn(nn2)CCCC(=O)N([C@H](C)CO)C[C@@H]1C | > 10 µM (inactive)
CC(=O)NC[C@H]1[C@@H](c2ccc(-c3cccnc3)cc2)[C@@H](CO)N1C(=O)CC1CC1 | > 10 µM (inactive)
O=C(C1CC1)N1C[C@H]2[C@@H](c3ccccc31)[C@H](CO)N2C(=O)c1ccccc1 | > 10 µM (inactive)
CC(=O)NC[C@@H]1[C@@H](c2ccc(C#Cc3ccccc3F)cc2)[C@@H](CO)N1C(C)=O | > 10 µM (inactive)
C[C@@H]1CN([C@H](C)CO)C(=O)CCCn2cc(nn2)CO[C@H]1CN(C)C(=O)Oc1ccc2ccccc2c1 | > 10 µM (inactive)
CCC(=O)NC[C@H]1[C@@H](c2ccc(-c3ccc(F)cc3)cc2)[C@@H](CO)N1C(=O)CC | > 10 µM (inactive)

SMILES | AC50
C[C@@H]1CN([C@H](C)CO)C(=O)CCCn2cc(nn2)CO[C@H]1CN(C)S(=O)(=O)c1ccc(-n2cccn2)cc1 | > 10 µM (inactive)
CCN(C[C@H]1[C@H](c2ccccc2)[C@H](CO)N1C(=O)COC)S(C)(=O)=O | > 10 µM (inactive)
COc1ccccc1CN1[C@@H](CO)[C@@H]2c3ccccc3N(C(=O)c3cccnc3)C[C@@H]21 | > 10 µM (inactive)
COCC(=O)N1[C@@H](CO)[C@@H]2c3ccccc3N(C(=O)Nc3ccccc3Cl)C[C@@H]21 | > 10 µM (inactive)
CC(=O)N1[C@H](CO)[C@H](c2ccccc2)[C@H]1CN(C)S(=O)(=O)c1ccccc1 | > 10 µM (inactive)
CNC[C@H]1OCc2cn(nn2)CCCC(=O)N([C@@H](C)CO)C[C@H]1C | > 10 µM (inactive)
COc1ccc(C(=O)N2C[C@H]3[C@@H](c4ccccc42)[C@H](CO)N3Cc2ccccc2Cl)cc1 | > 10 µM (inactive)
C[C@@H]1CN([C@@H](C)CO)C(=O)CCCn2nncc2CO[C@H]1CN(C)C(=O)CCC(F)(F)F | > 10 µM (inactive)
CCC(=O)N(CC(C)C)C[C@H]1[C@H](c2ccccc2)[C@@H](CO)N1C(=O)C1CCC1 | > 10 µM (inactive)
O=C(CC1CC1)N1[C@@H](CO)[C@@H]2c3ccccc3N(S(=O)(=O)c3ccccc3F)C[C@@H]21 | > 10 µM (inactive)
CCN(C[C@H]1[C@@H](c2ccccc2)[C@H](CO)N1CC1CC1)C(=O)c1ccccn1 | > 10 µM (inactive)
C[C@H]1CN([C@@H](C)CO)C(=O)CCCn2nncc2CO[C@H]1CN(C)Cc1cccc(C(F)(F)F)c1 | > 10 µM (inactive)
CCNC[C@H]1[C@@H](c2ccccc2)[C@@H](CO)N1C(=O)Cc1ccccn1 | > 10 µM (inactive)
COc1ccc(NC(=O)N2C[C@@H]3[C@H](c4ccccc42)[C@@H](CO)N3Cc2ccccn2)cc1 | > 10 µM (inactive)
C/C=C/c1ccc([C@@H]2[C@@H](CO)N(C(C)=O)[C@@H]2CN(CC)C(=O)CN(C)C)cc1 | > 10 µM (inactive)
CN(C)CC(=O)N1[C@@H](CO)[C@@H]2c3ccccc3N(C(=O)Cc3ccccc3)C[C@@H]21 | > 10 µM (inactive)
CC(=O)N1[C@H](CO)[C@H](c2ccccc2)[C@H]1CN(C(=O)c1ccccc1F)C(C)C | > 10 µM (inactive)
CCCN1[C@H](CO)[C@H](c2ccc(C#Cc3ccccc3)cc2)[C@@H]1CNC1CCCC1 | > 10 µM (inactive)
O=C(c1ccncc1)N1C[C@@H]2[C@H](c3ccccc31)[C@@H](CO)N2Cc1ccccc1F | > 10 µM (inactive)
CN1C[C@@H]2[C@H](c3ccccc31)[C@H](CO)N2S(=O)(=O)c1ccccc1 | > 10 µM (inactive)
C[C@H](CO)N1C[C@H](C)[C@H](CN(C)S(=O)(=O)c2cccc(C#N)c2)OCc2cn(nn2)CCCC1=O | > 10 µM (inactive)
C/C=C/c1ccc([C@H]2[C@@H](CO)N(C(=O)CC)[C@@H]2CN(C(=O)C2CC2)C(C)C)cc1 | > 10 µM (inactive)
C[C@H]1CN([C@@H](C)CO)C(=O)CCCn2nncc2CO[C@@H]1CN(C)C(=O)c1ccc2ccn(C)c2c1 | > 10 µM (inactive)
CC(C)NC(=O)N1[C@H](CNC(=O)CN(C)C)[C@H](c2ccccc2)[C@@H]1CO | > 10 µM (inactive)
